Measurements published in patent US8883963B2 (Cadila Healthcare Limited, priority 2007, dated 2014).
Starred links: 1 amine or outer side, 2 acyl side, 3 side chain; linkers in the order of their positions; H or OH if unused. Non-standard residues stand in square brackets, D forms with d. Residues, ends and D or L forms follow the SMILES beside them. ξ: configuration not given here. ξBip(2'-Et-4'-OMe) = CCc1cc(OC)ccc1-c1ccc(CC(N)C(=O)O)cc1; X1 = O=C(C(CCCc1ccc(C(F)(F)F)cc1F)N[*:1])[*:2]

Legend:
[1] = system: RIN5F (Rat Insulinoma) cells; assay: In vitro glucose-dependent insulin secretion (RIN5F cell assay screening protocol); format: cell-based; settings: 16.7 mM glucose load
human glucagon receptor = molecular target: T1, human glucagon receptor (Homo sapiens, UniProt P47871); assay: In vitro human glucagon antagonist activity (inhibition of cAMP production) in CHO/human glucagon R cells; format: cell-based; settings: with saturated concentration of glucagon peptide
T1 construct: The full-length cDNA was cloned in pcDNA3.1 (Invitrogen); expressed in transfected cells

DPP IV = DPP IV (Homo sapiens, UniProt P27487); assay: Stability against DPP IV enzyme; format: in vitro ADME; settings: 37° C.; for % degradation of peptidomimetics in 24 h when incubated with DPP-IV enzyme: 2 μM peptidomimetic; for half-life at 2 μM: DPP IV enzyme, pH 7.8, 2 μM peptidomimetic, read-out: half-life (t1/2) when incubated with DPP-IV enzyme
Experimental: (§1) Reactions were terminated by the addition of TFA/H2O (15 mL, 10% (v/v)). […] The column was equilibrated with TFA/H20, at a flow rate of 1 mL/min.

[2] = Stability in human plasma; format: in vitro ADME; settings: 2 μM peptidomimetic, pooled human plasma, 37° C.; for half-life at 2 μM: pH 7.8, read-out: half-life (t1/2) when incubated with human plasma
Experimental: as §1

[3] = Stability in simulated gastric fluid; format: in vitro ADME; settings: 2 μM peptidomimetic, simulated gastric fluid pH 1.5, 37° C.; for half-life at 2 μM: read-out: half-life (t1/2) when incubated with simulated gastric fluid
Experimental: as §1

[4] = Stability in simulated intestinal fluid; format: in vitro ADME; settings: 2 μM peptidomimetic, simulated intestinal fluid pH 7.5, 37° C.; for half-life at 2 μM: read-out: half-life (t1/2) when incubated with simulated intestinal fluid
Experimental: as §1

[5] = Stability in liver microsomes; format: in vitro ADME; settings: 2 μM peptidomimetic, human liver microsomes, 37° C.; for half-life at 2 μM: pH 7.8, read-out: half-life (t1/2) when incubated with liver microsomes
Experimental: as §1

T1 sequence (P47871 26-477): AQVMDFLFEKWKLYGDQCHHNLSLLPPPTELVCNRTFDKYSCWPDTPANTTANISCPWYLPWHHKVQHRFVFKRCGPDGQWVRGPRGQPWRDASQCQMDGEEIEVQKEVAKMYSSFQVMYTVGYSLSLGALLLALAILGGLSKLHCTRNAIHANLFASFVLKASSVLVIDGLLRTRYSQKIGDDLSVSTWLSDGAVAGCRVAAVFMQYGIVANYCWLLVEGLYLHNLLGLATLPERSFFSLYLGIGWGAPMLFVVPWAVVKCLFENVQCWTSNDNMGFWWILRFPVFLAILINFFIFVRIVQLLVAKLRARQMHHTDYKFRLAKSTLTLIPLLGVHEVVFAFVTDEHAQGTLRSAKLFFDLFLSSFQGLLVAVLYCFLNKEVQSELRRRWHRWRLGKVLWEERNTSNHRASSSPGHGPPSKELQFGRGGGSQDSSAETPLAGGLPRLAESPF
Chain of DPP IV (P27487 whole entry, species assumed): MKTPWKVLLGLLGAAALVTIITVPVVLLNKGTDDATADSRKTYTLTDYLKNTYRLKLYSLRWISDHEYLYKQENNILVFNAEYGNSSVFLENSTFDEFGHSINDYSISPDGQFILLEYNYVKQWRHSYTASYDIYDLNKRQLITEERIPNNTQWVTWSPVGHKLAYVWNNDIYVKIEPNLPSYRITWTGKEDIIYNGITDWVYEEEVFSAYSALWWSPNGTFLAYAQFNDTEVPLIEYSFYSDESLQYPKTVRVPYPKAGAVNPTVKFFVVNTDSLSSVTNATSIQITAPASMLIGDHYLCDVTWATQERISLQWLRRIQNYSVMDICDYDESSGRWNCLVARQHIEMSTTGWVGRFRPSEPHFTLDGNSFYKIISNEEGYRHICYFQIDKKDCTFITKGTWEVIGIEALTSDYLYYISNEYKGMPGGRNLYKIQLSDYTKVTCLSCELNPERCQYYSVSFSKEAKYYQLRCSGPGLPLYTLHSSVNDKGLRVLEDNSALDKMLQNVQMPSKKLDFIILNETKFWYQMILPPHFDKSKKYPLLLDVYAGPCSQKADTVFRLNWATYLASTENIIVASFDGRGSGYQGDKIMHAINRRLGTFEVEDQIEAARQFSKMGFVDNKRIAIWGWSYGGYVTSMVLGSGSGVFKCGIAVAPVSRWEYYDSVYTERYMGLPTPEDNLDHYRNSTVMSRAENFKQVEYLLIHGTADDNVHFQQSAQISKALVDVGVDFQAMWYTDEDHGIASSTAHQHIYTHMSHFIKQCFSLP

CCc1cc(OC)ccc1-c1ccc(CC(C(=O)N(C)C(CCCc2ccccc2)C(N)=O)N(C)C(=O)[C@H](CC(=O)O)NC(=O)[C@H](CO)NC(=O)[C@@H](NC(=O)C(C)(Cc2ccccc2F)NC(=O)[C@@H](NC(=O)CNC(=O)C(CCC#N)NC(=O)C(C)(C)NC(=O)[C@@H](N)Cc2c[nH]cn2)[C@H](C)O)[C@H](C)O)cc1 (single isomer, unassigned) [compound 142]
Insulin secretion ([1]; 0.1 nM test compd.): 12.9 ± 0.14 pg/µg/h | Insulin secretion ([1]; 1 nM test compd.): 15.8 ± 0.13 pg/µg/h | Insulin secretion ([1]; 10 nM test compd.): 29.9 ± 0.15 pg/µg/h | Human Glucagon receptor antagonistic activity shown as inhibition of cAMP production of Glucagon peptide (human glucagon receptor; 1 nM test compound): 10 ± 0.03 pmol/ml/μg prt | Human Glucagon receptor antagonistic activity shown as inhibition of cAMP production of Glucagon peptide (human glucagon receptor; 10 nM test compound): 8 ± 0.03 pmol/ml/μg prt | Human Glucagon receptor antagonistic activity shown as inhibition of cAMP production of Glucagon peptide (human glucagon receptor; 100 nM test compound): 6 ± 0.22 pmol/ml/μg prt | Human Glucagon receptor antagonistic activity shown as inhibition of cAMP production of Glucagon peptide (human glucagon receptor; 1 μM test compound): 2 ± 0.13 pmol/ml/μg prt | Human Glucagon receptor antagonistic activity shown as inhibition of cAMP production of Glucagon peptide (human glucagon receptor; 10 μM test compound): 0 pmol/ml/μg prt | % degradation of peptidomimetics in 24 h when incubated with DPP-IV enzyme (DPP IV): 77% | half-life at 2 μM (DPP IV): 540 min | % degradation of peptidomimetics in 24 h when incubated with human plasma [2]: 80% | half-life at 2 μM [2]: 480 min | half-life (t1/2) when incubated with simulated gastric fluid [3]: (8) h | % degradation of peptidomimetics in 24 h when incubated with simulated gastric fluid [3]: 13% | half-life (t1/2) when incubated with simulated intestinal fluid [4]: (6) h | % degradation of peptidomimetics in 24 h when incubated with simulated intestinal fluid [4]: 50% | % degradation of peptidomimetics in 24 h when incubated with liver microsomes [5]: 82% | half-life at 2 μM [5]: 60 min

CCc1cc(OC)ccc1-c1ccc(CC(NC(=O)[C@H](CC(=O)O)NC(=O)[C@H](CO)NC(=O)[C@@H](NC(=O)[C@H](Cc2ccccc2)NC(=O)[C@@H](NC(=O)CNC(=O)C(CCC#N)NC(=O)C(C)(C)NC(=O)[C@@H](N)Cc2c[nH]cn2)[C@@H](C)O)[C@@H](C)O)C(=O)NC(CCCc2ccc(F)cc2F)C(N)=O)cc1 (single isomer, unassigned) [compound 78]
Insulin secretion ([1]; 0.1 nM test compd.): 16.6 ± 0.41 pg/µg/h | Insulin secretion ([1]; 1 nM test compd.): 22.9 ± 0.32 pg/µg/h | Insulin secretion ([1]; 10 nM test compd.): 36.7 ± 0.11 pg/µg/h | Human Glucagon receptor antagonistic activity shown as inhibition of cAMP production of Glucagon peptide (human glucagon receptor; 1 nM test compound): 22 ± 0.03 pmol/ml/μg prt | Human Glucagon receptor antagonistic activity shown as inhibition of cAMP production of Glucagon peptide (human glucagon receptor; 10 nM test compound): 21 ± 0.05 pmol/ml/μg prt | Human Glucagon receptor antagonistic activity shown as inhibition of cAMP production of Glucagon peptide (human glucagon receptor; 100 nM test compound): 20 ± 0.07 pmol/ml/μg prt | Human Glucagon receptor antagonistic activity shown as inhibition of cAMP production of Glucagon peptide (human glucagon receptor; 1 μM test compound): 18 ± 0.04 pmol/ml/μg prt | Human Glucagon receptor antagonistic activity shown as inhibition of cAMP production of Glucagon peptide (human glucagon receptor; 10 μM test compound): 18 ± 0.03 pmol/ml/μg prt | % degradation of peptidomimetics in 24 h when incubated with DPP-IV enzyme (DPP IV): 70% | half-life (t1/2) when incubated with human plasma [2]: (9) h | % degradation of peptidomimetics in 24 h when incubated with human plasma [2]: 71% | % degradation of peptidomimetics in 24 h when incubated with simulated gastric fluid [3]: 100% | half-life at 2 μM [3]: 30 min | % degradation of peptidomimetics in 24 h when incubated with simulated intestinal fluid [4]: 100% | half-life at 2 μM [4]: 30 min | % degradation of peptidomimetics in 24 h when incubated with liver microsomes [5]: 100% | half-life at 2 μM [5]: 30 min

CCc1cc(OC)ccc1-c1ccc(CC(NC(=O)[C@H](CC(=O)O)NC(=O)[C@H](CO)NC(=O)[C@@H](NC(=O)[C@H](Cc2ccccc2)NC(=O)[C@@H](NC(=O)CNC(=O)[C@H](CCC(N)=O)NC(=O)[C@H](CO)NC(=O)[C@@H](N)Cc2c[nH]cn2)[C@@H](C)O)[C@@H](C)O)C(=O)NC(CCCc2ccc(C(F)(F)F)cc2F)C(N)=O)cc1 (stereo partly shown) [compound 49] (H-HSQGTFTSD[ξBip(2'-Et-4'-OMe)][X1]-NH2)
Insulin secretion ([1]; 0.1 nM test compd.): 16.1 ± 0.22 pg/µg/h | Insulin secretion ([1]; 1 nM test compd.): 22.1 ± 0.26 pg/µg/h | Insulin secretion ([1]; 10 nM test compd.): 36.0 ± 0.36 pg/µg/h | Human Glucagon receptor antagonistic activity shown as inhibition of cAMP production of Glucagon peptide (human glucagon receptor; 1 nM test compound): 10 ± 0.03 pmol/ml/μg prt | Human Glucagon receptor antagonistic activity shown as inhibition of cAMP production of Glucagon peptide (human glucagon receptor; 10 nM test compound): 8 ± 0.03 pmol/ml/μg prt | Human Glucagon receptor antagonistic activity shown as inhibition of cAMP production of Glucagon peptide (human glucagon receptor; 100 nM test compound): 6 ± 0.22 pmol/ml/μg prt | Human Glucagon receptor antagonistic activity shown as inhibition of cAMP production of Glucagon peptide (human glucagon receptor; 1 μM test compound): 2 ± 0.13 pmol/ml/μg prt | Human Glucagon receptor antagonistic activity shown as inhibition of cAMP production of Glucagon peptide (human glucagon receptor; 10 μM test compound): 0 pmol/ml/μg prt | % degradation of peptidomimetics in 24 h when incubated with DPP-IV enzyme (DPP IV): 75% | half-life at 2 μM (DPP IV): 540 min | % degradation of peptidomimetics in 24 h when incubated with human plasma [2]: 77% | half-life at 2 μM [2]: 480 min | half-life (t1/2) when incubated with simulated gastric fluid [3]: (8) h | % degradation of peptidomimetics in 24 h when incubated with simulated gastric fluid [3]: 14% | half-life (t1/2) when incubated with simulated intestinal fluid [4]: (6) h | % degradation of peptidomimetics in 24 h when incubated with simulated intestinal fluid [4]: 45% | % degradation of peptidomimetics in 24 h when incubated with liver microsomes [5]: 81% | half-life at 2 μM [5]: 60 min

CCc1cc(OC)ccc1-c1ccc(CC(NC(=O)[C@H](CC(=O)O)NC(=O)[C@H](CO)NC(=O)[C@@H](NC(=O)C(C)(Cc2ccccc2F)NC(=O)[C@@H](NC(=O)CNC(=O)C(CCC#N)NC(=O)C(C)(C)NC(=O)[C@@H](N)Cc2c[nH]cn2)[C@H](C)O)[C@H](C)O)C(=O)N(C)C(CCCc2ccccc2F)C(N)=O)cc1 (single isomer, unassigned) [compound 132]
Insulin secretion ([1]; 0.1 nM test compd.): 13.1 ± 0.11 pg/µg/h | Insulin secretion ([1]; 1 nM test compd.): 14.9 ± 0.17 pg/µg/h | Insulin secretion ([1]; 10 nM test compd.): 28.8 ± 0.44 pg/µg/h | Human Glucagon receptor antagonistic activity shown as inhibition of cAMP production of Glucagon peptide (human glucagon receptor; 1 nM test compound): 15 ± 0.11 pmol/ml/μg prt | Human Glucagon receptor antagonistic activity shown as inhibition of cAMP production of Glucagon peptide (human glucagon receptor; 10 nM test compound): 12 ± 0.13 pmol/ml/μg prt | Human Glucagon receptor antagonistic activity shown as inhibition of cAMP production of Glucagon peptide (human glucagon receptor; 100 nM test compound): 8 ± 0.09 pmol/ml/μg prt | Human Glucagon receptor antagonistic activity shown as inhibition of cAMP production of Glucagon peptide (human glucagon receptor; 1 μM test compound): 4 ± 0.01 pmol/ml/μg prt | Human Glucagon receptor antagonistic activity shown as inhibition of cAMP production of Glucagon peptide (human glucagon receptor; 10 μM test compound): 2 ± 0.08 pmol/ml/μg prt | % degradation of peptidomimetics in 24 h when incubated with DPP-IV enzyme (DPP IV): 75% | half-life at 2 μM (DPP IV): 540 min | % degradation of peptidomimetics in 24 h when incubated with human plasma [2]: 77% | half-life at 2 μM [2]: 480 min | half-life (t1/2) when incubated with simulated gastric fluid [3]: (8) h | % degradation of peptidomimetics in 24 h when incubated with simulated gastric fluid [3]: 14% | half-life (t1/2) when incubated with simulated intestinal fluid [4]: (6) h | % degradation of peptidomimetics in 24 h when incubated with simulated intestinal fluid [4]: 45% | % degradation of peptidomimetics in 24 h when incubated with liver microsomes [5]: 81% | half-life at 2 μM [5]: 60 min

CCc1cc(OC)ccc1-c1ccc(CC(NC(=O)[C@H](CC(=O)O)NC(=O)[C@H](CO)NC(=O)[C@@H](NC(=O)[C@H](Cc2ccccc2)NC(=O)[C@@H](NC(=O)CNC(=O)C(CCC#N)NC(=O)C(C)(C)NC(=O)[C@@H](N)Cc2c[nH]cn2)[C@@H](C)O)[C@@H](C)O)C(=O)NC(CCCc2cccc(Cl)c2)C(N)=O)cc1 (single isomer, unassigned) [compound 31]
Insulin secretion ([1]; 0.1 nM test compd.): 16.8 ± 0.20 pg/µg/h | Insulin secretion ([1]; 1 nM test compd.): 22.7 ± 0.29 pg/µg/h | Insulin secretion ([1]; 10 nM test compd.): 36.6 ± 0.31 pg/µg/h | Human Glucagon receptor antagonistic activity shown as inhibition of cAMP production of Glucagon peptide (human glucagon receptor; 1 nM test compound): 6 ± 0.02 pmol/ml/μg prt | Human Glucagon receptor antagonistic activity shown as inhibition of cAMP production of Glucagon peptide (human glucagon receptor; 10 nM test compound): 5 ± 0.03 pmol/ml/μg prt | Human Glucagon receptor antagonistic activity shown as inhibition of cAMP production of Glucagon peptide (human glucagon receptor; 100 nM test compound): 2 ± 0.61 pmol/ml/μg prt | Human Glucagon receptor antagonistic activity shown as inhibition of cAMP production of Glucagon peptide (human glucagon receptor; 1 μM test compound): 0 pmol/ml/μg prt | Human Glucagon receptor antagonistic activity shown as inhibition of cAMP production of Glucagon peptide (human glucagon receptor; 10 μM test compound): 0 pmol/ml/μg prt | % degradation of peptidomimetics in 24 h when incubated with DPP-IV enzyme (DPP IV): 76% | half-life (t1/2) when incubated with human plasma [2]: (9) h | % degradation of peptidomimetics in 24 h when incubated with human plasma [2]: 78% | % degradation of peptidomimetics in 24 h when incubated with simulated gastric fluid [3]: 100% | half-life at 2 μM [3]: 30 min | % degradation of peptidomimetics in 24 h when incubated with simulated intestinal fluid [4]: 100% | half-life at 2 μM [4]: 30 min | % degradation of peptidomimetics in 24 h when incubated with liver microsomes [5]: 100% | half-life at 2 μM [5]: 30 min
